{"source": "ChEMBL document CHEMBL1201862", "about": "“PubChem BioAssay data set” (2004)", "key": {"Beta-galactosidase": {"molecular_target": "Beta-galactosidase (Escherichia coli, UniProt Q8VNN2)", "sequence (Q8VNN2 whole entry)": "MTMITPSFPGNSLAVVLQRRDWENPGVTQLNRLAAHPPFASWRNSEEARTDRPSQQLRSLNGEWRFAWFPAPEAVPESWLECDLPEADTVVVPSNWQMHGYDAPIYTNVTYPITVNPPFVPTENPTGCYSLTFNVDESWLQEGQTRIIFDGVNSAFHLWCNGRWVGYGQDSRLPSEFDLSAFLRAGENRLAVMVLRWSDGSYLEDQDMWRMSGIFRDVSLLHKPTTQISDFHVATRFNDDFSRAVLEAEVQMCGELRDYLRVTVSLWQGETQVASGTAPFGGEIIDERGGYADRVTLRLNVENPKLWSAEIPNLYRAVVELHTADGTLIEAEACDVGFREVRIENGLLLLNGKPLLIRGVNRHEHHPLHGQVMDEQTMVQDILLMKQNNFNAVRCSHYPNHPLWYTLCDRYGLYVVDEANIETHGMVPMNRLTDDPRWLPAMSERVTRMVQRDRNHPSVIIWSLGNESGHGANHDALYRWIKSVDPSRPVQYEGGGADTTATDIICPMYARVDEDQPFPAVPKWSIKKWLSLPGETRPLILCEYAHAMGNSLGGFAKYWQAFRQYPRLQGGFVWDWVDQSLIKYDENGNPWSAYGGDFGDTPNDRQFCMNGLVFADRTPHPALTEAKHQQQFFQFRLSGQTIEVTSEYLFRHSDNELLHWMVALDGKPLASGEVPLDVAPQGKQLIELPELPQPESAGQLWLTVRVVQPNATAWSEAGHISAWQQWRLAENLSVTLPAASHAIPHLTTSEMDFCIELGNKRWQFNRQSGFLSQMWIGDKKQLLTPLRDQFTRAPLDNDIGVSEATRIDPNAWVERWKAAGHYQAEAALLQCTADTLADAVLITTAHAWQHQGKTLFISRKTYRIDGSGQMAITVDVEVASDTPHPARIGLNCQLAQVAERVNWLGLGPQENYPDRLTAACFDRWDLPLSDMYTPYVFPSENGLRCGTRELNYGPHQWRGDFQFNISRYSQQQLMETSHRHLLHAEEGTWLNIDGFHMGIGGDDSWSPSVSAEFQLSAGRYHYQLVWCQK", "test": "Dose response counterscreen for EBI2 assay utilizing the enzyme, b-galactosidase.", "type": "functional"}, "[1]": {"test": "OVCAR-3 cell viability loss – plate reader, dry powder samples, PAX8 inhibitor project, dose response (AID 743044)", "type": "functional, cell-based"}, "[2]": {"test": "OVCAR8 cell viability loss – plate reader, dry powder samples, PAX8 project, dose response (AID 743197)", "type": "functional, cell-based", "details": "OVCAR-8"}, "[3]": {"test": "general mammalian cell viability loss – activator set, cherry-pick, cytotoxicity control for miR-122 modulator project, dose response (AID 720690)", "type": "functional, cell-based"}, "Paired box protein Pax-8": {"molecular_target": "Paired box protein Pax-8 (Homo sapiens, UniProt Q06710)", "sequence (Q06710 whole entry)": "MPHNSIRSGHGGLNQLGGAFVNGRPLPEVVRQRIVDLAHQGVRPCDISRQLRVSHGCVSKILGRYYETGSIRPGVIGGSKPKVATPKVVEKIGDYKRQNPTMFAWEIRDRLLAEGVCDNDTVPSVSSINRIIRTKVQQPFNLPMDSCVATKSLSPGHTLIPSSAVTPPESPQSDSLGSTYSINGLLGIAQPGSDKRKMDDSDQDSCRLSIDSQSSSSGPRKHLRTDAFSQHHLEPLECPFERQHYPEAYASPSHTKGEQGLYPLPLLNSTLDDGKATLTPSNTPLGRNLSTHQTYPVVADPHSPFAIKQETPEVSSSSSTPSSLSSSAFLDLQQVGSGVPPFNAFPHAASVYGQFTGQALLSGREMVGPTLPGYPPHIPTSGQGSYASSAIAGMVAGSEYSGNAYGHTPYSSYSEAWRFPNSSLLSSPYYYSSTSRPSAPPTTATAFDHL", "test": "PAX8 transcriptional activity inhibition in RMG-I – RMG-I cells, luciferase, cherry-pick, dose response (AID 687027);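 further: luciferase reporter driven by Pax8 target thyroperoxidase promoter measured by SteadyGlo luminescence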", "type": "functional, cell-based"}, "[4]": {"test": "viability loss of HPDE-C7K cells – cell-based, fluorescence, HTS, primary screen (AID 431)", "type": "functional", "details": "Homo sapiens"}, "[5]": {"test": "HPDE-C7 pancreatic duct cell viability loss – fluorescence, HTS (AID 430)", "type": "functional, cell-based", "details": "Homo sapiens"}, "[6]": {"molecular_target": "Peroxisome proliferator-activated receptor gamma/Nuclear receptor coactivator 3 (Homo sapiens, UniProt P37231)", "type": "functional"}, "[7]": {"molecular_target": "Peroxisome proliferator-activated receptor gamma/Nuclear receptor coactivator 2 (Homo sapiens, UniProt P37231)", "type": "functional"}, "[8]": {"molecular_target": "Peroxisome proliferator-activated receptor gamma/Nuclear receptor coactivator 1 (Homo sapiens, UniProt P37231)", "sequence (P37231 whole entry)": "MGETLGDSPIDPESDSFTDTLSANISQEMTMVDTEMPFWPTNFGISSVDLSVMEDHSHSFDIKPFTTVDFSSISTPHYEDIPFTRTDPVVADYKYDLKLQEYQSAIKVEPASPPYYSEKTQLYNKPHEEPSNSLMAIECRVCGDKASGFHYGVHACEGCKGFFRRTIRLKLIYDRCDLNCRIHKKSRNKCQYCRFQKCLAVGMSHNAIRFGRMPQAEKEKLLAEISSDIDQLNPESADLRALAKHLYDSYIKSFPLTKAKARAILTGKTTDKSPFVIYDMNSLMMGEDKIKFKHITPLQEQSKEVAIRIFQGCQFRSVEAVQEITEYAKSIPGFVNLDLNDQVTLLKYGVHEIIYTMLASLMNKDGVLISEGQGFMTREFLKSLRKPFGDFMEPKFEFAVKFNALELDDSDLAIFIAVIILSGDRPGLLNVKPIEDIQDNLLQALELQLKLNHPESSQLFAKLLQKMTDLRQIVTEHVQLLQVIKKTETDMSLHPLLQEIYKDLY", "sequence (Q15788 whole entry, further chain)": "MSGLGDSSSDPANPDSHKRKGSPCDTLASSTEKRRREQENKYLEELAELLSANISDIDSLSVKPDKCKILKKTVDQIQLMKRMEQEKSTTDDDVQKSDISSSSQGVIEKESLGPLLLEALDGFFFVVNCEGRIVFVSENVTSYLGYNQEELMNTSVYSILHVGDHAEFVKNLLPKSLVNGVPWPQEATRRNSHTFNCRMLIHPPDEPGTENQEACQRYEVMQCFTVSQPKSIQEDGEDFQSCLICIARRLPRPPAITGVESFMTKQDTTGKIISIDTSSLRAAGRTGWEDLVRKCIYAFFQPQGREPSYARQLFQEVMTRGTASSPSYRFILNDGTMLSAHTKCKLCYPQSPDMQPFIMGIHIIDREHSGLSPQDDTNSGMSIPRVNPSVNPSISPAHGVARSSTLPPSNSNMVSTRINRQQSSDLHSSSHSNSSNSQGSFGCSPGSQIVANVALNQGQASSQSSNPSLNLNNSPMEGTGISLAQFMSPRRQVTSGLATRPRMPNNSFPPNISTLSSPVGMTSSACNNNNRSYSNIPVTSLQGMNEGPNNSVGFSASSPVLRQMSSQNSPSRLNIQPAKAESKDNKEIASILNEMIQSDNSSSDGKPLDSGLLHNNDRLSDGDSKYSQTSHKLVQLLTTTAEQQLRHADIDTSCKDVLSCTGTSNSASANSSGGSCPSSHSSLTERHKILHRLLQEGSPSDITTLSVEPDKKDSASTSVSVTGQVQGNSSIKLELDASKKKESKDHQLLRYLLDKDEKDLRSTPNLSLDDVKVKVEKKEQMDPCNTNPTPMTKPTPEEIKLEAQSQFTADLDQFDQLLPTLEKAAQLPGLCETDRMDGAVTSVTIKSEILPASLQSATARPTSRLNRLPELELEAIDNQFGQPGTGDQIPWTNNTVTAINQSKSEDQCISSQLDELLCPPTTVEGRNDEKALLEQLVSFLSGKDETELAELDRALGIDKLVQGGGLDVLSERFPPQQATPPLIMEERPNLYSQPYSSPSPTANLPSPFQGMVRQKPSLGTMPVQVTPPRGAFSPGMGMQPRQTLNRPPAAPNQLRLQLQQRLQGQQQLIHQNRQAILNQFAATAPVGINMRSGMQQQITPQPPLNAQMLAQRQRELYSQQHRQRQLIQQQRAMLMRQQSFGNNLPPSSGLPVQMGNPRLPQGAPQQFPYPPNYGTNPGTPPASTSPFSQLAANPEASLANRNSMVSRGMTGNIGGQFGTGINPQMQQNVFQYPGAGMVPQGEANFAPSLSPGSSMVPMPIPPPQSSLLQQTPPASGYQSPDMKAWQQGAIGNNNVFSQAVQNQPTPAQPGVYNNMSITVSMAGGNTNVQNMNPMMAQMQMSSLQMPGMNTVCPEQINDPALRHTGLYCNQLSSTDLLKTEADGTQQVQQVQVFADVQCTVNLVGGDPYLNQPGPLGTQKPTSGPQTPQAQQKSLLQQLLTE", "type": "functional"}, "[9]": {"molecular_target": "Heat shock protein HSP 90-alpha (Homo sapiens, UniProt P07900)", "test": "Luminescence-based dose response biochemical high throughput screening assay for inhibitors of the Heat Shock Protein 90 (HSP90). [Related pubchem assays: 1831 (Summary AID.), 1846 (Confirmation screen.), 1789 (Primary screen.)]"}, "[10]": {"test": "Luminescence Cell-Based Dose Response HTS to Identify Activators of Luciferase Translation or Activity in H4 […] Cells. [Related pubchem assays: 1829 (Project Summary), 1814 (Primary HTS)]", "type": "functional"}, "H4": {"test_system": "H4", "test": "Luminescence Cell-Based Dose Response HTS to Identify Activators of 5'UTR Stem-Loop Driven Prion Protein mRNA Translation in H4 Neuroglioblastoma Cells. [Related pubchem assays: 1829 (Project Summary), 1814 (Primary HTS)]", "type": "functional", "details": "Homo sapiens"}, "[11]": {"test": "Luminescence Cell-Based Dose Response to Identify Activators of 5'UTR Stem-Loop Driven Prion Protein mRNA Translation in H4-C Neuroglioblastoma Cells. [Related pubchem assays: 1829 (Project Summary), 1814 (Primary HTS)]", "type": "functional"}, "[12]": {"test": "Luminescence Cell-Based Dose Confirmation to Identify Activators of 5'UTR Stem-Loop Driven Alpha-Synuclein mRNA Translation in H4 Neuroglioblastoma Cells. [Related pubchem assays: 1829 (Project Summary), 1814 (Primary HTS)]", "type": "functional"}, "[13]": {"test": "Luminescence Cell-Based Dose Response to Identify Activators of Luciferase Translation or Activity in H4-C Neuroglioblastoma Cells. [Related pubchem assays: 1829 (Project Summary), 1814 (Primary HTS)]", "type": "functional"}, "[14]": {"test": "Luminescence Cell-Based Dose Confirmation HTS to Identify Activators of 5'UTR Stem-Loop Driven Alpha-Synuclein mRNA Translation in H4 Neuroglioblastoma Cells. [Related pubchem assays: 1829 (Project Summary), 1814 (Primary HTS)]", "type": "functional"}, "[15]": {"test": "general cell-killing toxicity readout – plate reader, dry powder samples, cytotoxicity control for PAX8 inhibitor project, dose response (AID 743021)", "type": "functional, cell-based"}, "[16]": {"test": "A2780 cell killing – plate reader, dry powder samples, cytotoxicity control, dose response (AID 743046)", "type": "functional, cell-based"}, "[17]": {"test": "T. cruzi growth inhibition in host cells, dose response, cell-based, plate reader, dry powder, set 2 (AID 652275)", "type": "functional"}, "Protein Tat": {"molecular_target": "T1, Protein Tat (Human immunodeficiency virus type 1 group M subtype B (isolate HXB2)(HIV-1), UniProt P04608)", "T1 sequence (P04608 whole entry)": "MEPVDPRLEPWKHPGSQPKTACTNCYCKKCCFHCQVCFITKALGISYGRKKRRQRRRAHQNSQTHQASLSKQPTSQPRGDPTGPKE", "type": "functional"}, "[18]": {"test": "growth inhibition of yeast DHODH-expressing 3D7 parasites – SYBR Green, dry powder samples, dose response (AID 1159570);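 further: parasite growth measured after 72 hours of compound exposure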", "type": "functional, cell-based"}, "[19]": {"test": "P. falciparum Dd2 growth inhibitors, dose response, SYBR Green, cherry-picked samples (AID 1159567)", "type": "functional, cell-based"}, "[20]": {"test": "growth inhibition of PfATP4-mutant resistant parasites – NITD609-resistant line, SYBR Green, dry powder, dose response (AID 1159571);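 further: parasites synchronized at ring stage by sorbitol before testing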", "type": "functional, cell-based"}, "[21]": {"test": "Dd2 malaria parasite growth inhibition potency – SYBR Green, dry powder samples, dose response (AID 1159566);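 further: potency for growth inhibition with lower SYBR green DNA signal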", "type": "functional, cell-based"}, "[22]": {"test": "Dd2 parasite growth inhibition in erythrocytes – SYBR Green, dry powder samples, set 9, dose response (AID 1159568)", "type": "functional, cell-based"}, "[23]": {"test": "off-target signal loss in HeLa-CEM21 co-culture – HeLa F-luc CTL cells, cherry-picked, counter-screen for HIV-1 Env fusion inhibitor project, dose response (AID 652040);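 further: potency for signal decrease marking cytotoxic or nonspecific inhibition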", "type": "functional, cell-based"}, "[24]": {"test": "A549 cell cytotoxicity, dose response, cytotoxicity control, plate reader, cherry-pick, antagonist series (AID 743412)", "type": "functional, cell-based"}, "[25]": {"test": "viability loss in HEK293 cells – cell-based, plate reader, cherry-picked samples, cytotoxicity control, dose response (AID 743446)", "type": "functional"}, "[26]": {"test": "toxicity toward HepG2 liver cells – cell-based, plate reader, cherry-pick, antagonist series, cytotoxicity control, dose response (AID 743416)", "type": "functional"}, "[27]": {"test": "blockers of HIV-1 ZM109 envelope-driven cell-cell fusion – HeLa effector, CEM target cells, luciferase, cherry-pick, dose response (AID 652058)", "type": "functional, cell-based"}, "[28]": {"test": "HIV-1 AD8 envelope cell-cell fusion blockers – cherry-pick, dose response (AID 652062);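 further: potency is for inhibitors of fusion seen as a drop in luminescence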", "type": "functional, cell-based"}, "[29]": {"test": "viability loss in CEM21 cells – cell-based, CellTiter-Glo luminescence, cherry-picked, cytotoxicity control for viral fusion inhibitor project, dose response (AID 652042);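 further: potency for signal decrease meaning cytotoxicity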", "type": "functional"}, "[30]": {"test": "blockade of melanocortin 4 receptor signaling – cell-based, plate reader, cherry pick, counter-screen for LGR2 antagonist project, dose response (AID 743444);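 further: transfected HEK 293 cells stimulated with alpha-MSH peptide; potency of inhibitors of the alpha-MSH evoked signal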", "type": "functional"}, "[31]": {"test": "blockers of bursicon-stimulated LGR2 cAMP reporter – cell-based, HEK293, CRE-luciferase reporter, cherry pick, set 2, dose response (AID 743343);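 further: transfected cells were stimulated with diluted bursicon conditioned medium after compound addition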", "type": "functional"}, "[32]": {"test": "blockers of HIV-1 envelope-mediated cell-cell fusion – cherry-pick, dose response (AID 652057)", "type": "functional, cell-based"}, "[33]": {"test": "IGROV1 cell killing – plate reader, dry powder samples, PAX8 inhibitor project, dose response (AID 743043)", "type": "functional, cell-based", "details": "IGROV-1"}}, "note": "The source made the active and inactive calls.", "data": [{"smiles": "CCN1CCN(c2ccc(S(=O)(=O)N3CCOCC3)cc2NC(=O)/C=C/c2ccc(C)cc2)CC1", "values": [{"measurement": "IC50", "setting": "Beta-galactosidase", "result": "> 80 µM (inactive)"}]}, {"smiles": "C[C@@H]1CN([C@@H](C)CO)S(=O)(=O)c2ccc(C#Cc3ccccc3F)cc2O[C@@H]1CN(C)C(=O)c1ccc2c(c1)OCO2", "values": [{"measurement": "AC50", "setting": "[1]", "result": "20.5 µM (active)"}, {"measurement": "AC50", "setting": "[2]", "result": "> 70 µM (inactive)"}, {"measurement": "AC50", "setting": "[3]", "result": "26.9 µM (active)"}, {"measurement": "AC50", "setting": "Paired box protein Pax-8", "result": "13.2 µM (active)"}]}, {"smiles": "CCOC(=O)N1CCN(S(=O)(=O)c2cc(Br)cc3c2N(C(C)=O)C(C)C3)CC1", "note": "(stereo not drawn)", "values": [{"measurement": "EC50", "setting": "[4]", "result": "> 20 µM (not active)"}, {"measurement": "EC50", "setting": "[5]", "result": "> 20 µM (not active)"}]}, {"smiles": "COc1ccc(N2CCN(C(=O)c3cc4c(s3)-c3ccccc3OC4)CC2)cc1", "values": [{"measurement": "IC50", "setting": "Beta-galactosidase", "result": "> 80 µM (inactive)"}]}, {"smiles": "COc1ccc(C(=O)CSc2nnc(-c3ccc(S(=O)(=O)N4CCOCC4)cc3)o2)cc1", "values": [{"measurement": "EC50", "setting": "[6]", "result": "53.5 µM (not active)"}, {"measurement": "EC50", "setting": "[7]", "result": "26.1 µM (not active)"}, {"measurement": "EC50", "setting": "[8]", "result": "40.5 µM (not active)"}]}, {"smiles": "CC(=O)Oc1ccccc1/C=C/c1nc2ccccc2c(=O)o1", "values": [{"measurement": "IC50", "setting": "[9]", "result": "5.31 µM (active)"}]}, {"smiles": "COc1ccc(/C=N/Nc2nnc(-c3ncc[nH]3)c3ccccc23)cc1", "values": [{"measurement": "EC50", "setting": "[10]", "result": "1.93 µM (active)"}, {"measurement": "EC50", "setting": "H4", "result": "65.2 µM (active)"}, {"measurement": "EC50", "setting": "[11]", "result": "> 12 µM (not active)"}, {"measurement": "EC50", "setting": "[12]", "result": "962 nM (active)"}, {"measurement": "EC50", "setting": "[13]", "result": "1.34 µM (active)"}, {"measurement": "EC50", "setting": "[14]", "result": "< 100 nM (active)"}]}, {"smiles": "O=C(Cc1cccnc1)N1CCCCN2[C@H](C1)[C@H](c1ccc(/C=C/c3ccccc3)cc1)[C@@H]2CO", "values": [{"measurement": "AC50", "setting": "[15]", "result": "50.6 µM (active)"}, {"measurement": "AC50", "setting": "[16]", "result": "25.1 µM (active)"}, {"measurement": "AC50", "setting": "[1]", "result": "5.01 µM (active)"}, {"measurement": "AC50", "setting": "[2]", "result": "41.2 µM (active)"}, {"measurement": "AC50", "setting": "Paired box protein Pax-8", "result": "4.42 µM (active)"}]}, {"smiles": "O=C(Cc1ccccn1)N1CCCCN2[C@@H](CO)[C@H](c3ccc(-c4ccccc4)cc3)[C@@H]2C1", "values": [{"measurement": "AC50", "setting": "[17]", "result": "551 nM (active)"}]}, {"smiles": "Cc1nccn1CC(=O)N/N=C/c1ccc(O)c(O)c1", "values": [{"measurement": "IC50", "setting": "Protein Tat", "result": "39 µM (inconclusive)"}]}, {"smiles": "C[C@@H]1CN([C@@H](C)CO)C(=O)c2cccc(NC(=O)c3cnccn3)c2O[C@@H]1CN(C)Cc1ccc(-c2ccccc2)cc1", "values": [{"measurement": "AC50", "setting": "[18]", "result": "94.7 nM (active)"}, {"measurement": "AC50", "setting": "[19]", "result": "1.14 µM (active)"}, {"measurement": "AC50", "setting": "[20]", "result": "357 nM (active)"}, {"measurement": "AC50", "setting": "[21]", "result": "381 nM (active)"}, {"measurement": "AC50", "setting": "[22]", "result": "378 nM (active)"}]}, {"smiles": "CC(C)c1ccc(OCCCN2CCC(C(O)(c3ccccc3)c3ccccc3)CC2)cc1", "values": [{"measurement": "AC50", "setting": "[23]", "result": "7.88 µM (active)"}, {"measurement": "AC50", "setting": "[24]", "result": "9.56 µM (active)"}, {"measurement": "AC50", "setting": "[25]", "result": "14 µM (active)"}, {"measurement": "AC50", "setting": "[26]", "result": "7.6 µM (active)"}, {"measurement": "AC50", "setting": "[27]", "result": "9.88 µM (active)"}, {"measurement": "AC50", "setting": "[28]", "result": "9.48 µM (active)"}, {"measurement": "AC50", "setting": "[29]", "result": "7.21 µM (active)"}, {"measurement": "AC50", "setting": "[30]", "result": "5.65 µM (active)"}, {"measurement": "AC50", "setting": "[31]", "result": "6.8 µM (active)"}, {"measurement": "AC50", "setting": "[32]", "result": "9.63 µM (active)"}]}, {"smiles": "Cc1cccc(S(=O)(=O)N2CC[C@@H]3[C@H]2c2cc(C4=CCCCC4)ccc2N[C@@H]3CO)c1", "values": [{"measurement": "AC50", "setting": "[33]", "result": "55.6 µM (active)"}, {"measurement": "AC50", "setting": "[2]", "result": "> 70 µM (inactive)"}, {"measurement": "AC50", "setting": "Paired box protein Pax-8", "result": "10.8 µM (active)"}]}]}
